From patent US10865203B2, “Ligands selective to alpha 6 subunit-containing GABAA receptors and their methods of use” (UWM Research Foundation, Inc., priority 2015, dated 2020)
≈ marks a conversion by molar mass, not a printed value.

Legend:
[1] = Solubility of compounds in DI water; format: physicochemical; conditions: thermodynamic from solid; 2 mg in 2 mL DI water, sonicated at 60° C. for 2 hours, cooled to room temperature, filtered
Protocol: The solubility of the compounds was examined by sonicating 2 mg of each respective compound in 2 mL of DI water at 60° C. for 2 hours. Solutions were cooled to room temperature and then filtered using a syringe filter. The resultant solutions were injected into a mass spectrometer using a SIM method, calibrated to the respective retention times and mass units of each compound. Calibration curves using standard solutions (5 data points) of each compound dissolved in methanol were used to calculate the unknown aqueous concentrations of each compound.

[2] = Microsomal stability assay, human liver microsomes; format: in vitro ADME; conditions: 10 μM test compound, 0.5 mg/mL protein, 37° C.
Protocol: (§1) 4 μL of 1 mM test compound at a final concentration of 10 μM dissolved in DMSO/ACN/Methanol/Ethanol was preincubated at 37° C. for 5 minutes on a digital heating shaking dry bath (Fischer scientific, Pittsburgh, Pa.) in a mixture containing 282 μL of water, 80 μL of phosphate buffer (0.5 M, pH 7.4), 20 μL of NADPH Regenerating System Solution A (BD Bioscience, San Jose, Calif.) and 4 μL of NADPH Regenerating System Solution B (BD Bioscience, San Jose, Calif.) in a total volume of 391.2 μL. Following preincubation, the reaction was initiated by addition of 8.8 μL of either human liver microsomes (BD Gentest, San Jose, Calif.), mouse liver microsomes (Life technologies, Rockford, Ill.), at a protein concentration of 0.5 mg/mL. Aliquots of 50 μL were taken at time intervals of 0 (without microsomes), 10, 20, 30, 40, 50 and 60 minutes. Each aliquot was added to 100 μL of cold acetonitrile solution containing 1 μM/2 μM internal standard. This was followed by sonication for 10 seconds and centrifugation at 10,000 rpm for 5 minutes. 100 μL of the supernatant was transferred into Spin-X HPLC filter tubes (Corning Incorporated, NY) and centrifuged at 13,000 rpm for 5 minutes. […] The ratio of the peak areas of the internal standard and test compound was calculated for every time point and the natural log of the ratio were plotted against time to determine the linear slope (k). […] All experiments were repeated three times in duplicates.

[3] = Microsomal stability assay, mouse liver microsomes; format: in vitro ADME; conditions: 10 μM test compound, 0.5 mg/mL protein, 37° C.; for half-life at 10 μM: mouse, liver microsomes, pH 7.4, read-out: Half-life (min) (MLM)
Protocol: as §1

HEPG2 cell line = experiment: Cytotoxicity study, CellTiter-Glo cell viability; format: cell-based, Human; conditions: HEPG2, 48 hours incubation
Protocol: Reagents and Instrumentation: Human liver hepatocellular carcinoma (HEPG2) cell line was purchased (ATCC) and cultured in 75 cm2 flasks (CellStar). Cells were grown in DMEM/High Glucose (Hyclone, #SH3024301) media to which non-essential amino acids (Hyclone, #SH30238.01), 10 mM HEPES (Hyclone, #SH302237.01), 5×106 units of penicillin and streptomycin (Hyclone, #SV30010), and 10% of heat inactivated fetal bovine serum (Gibco, #10082147) were added. Cells were harvested using 0.05% Trypsin (Hyclone, #SH3023601), which disrupts the cell monolayer and proteolytically cleaves the bonds between the cells and flask. The cell viability assay was evaluated using CellTiter-Glo™ Luminescent Cell Viability Assay Kit (Promega, Madison, Wis.) which contains luciferase and all its substrate except ATP. The controls for the cytotoxicity assay used were (E)-10-(bromotriphenylphosphoranyl)decyl 4-(4-(tert-butyl)phenyl)-4-oxobut-2-enoate (400 μM in DMSO, positive control) and DMSO (negative control). Cell culture was performed in a Baker Company Class II Biological Safety Cabinet. All luminescence readings were performed on a Tecan Infinite M1000 plate reader. Small volume transfers were performed on the Tecan Freedom EVO liquid handling system with a 100 nL pin tool transfer (V&P Scientific). Serial dilutions were done in 96-well polypropylene plates (Corning, #3365) and assays were conducted in 384-well white optical bottom plates.
Luminescence-Based VDR-Mediated Transcription Assay Protocol: After 48 hours of incubation at 37 °C with 5% CO2, the cells were harvested with 4 mL of 0.05% Trypsin, added to 10 mL of the assay buffer, DMEM/High Modified buffer without phenol red, and spun down for 3 minutes at 1000 rpm. The media was removed and cells were resuspended in the DMEM assay media. To each well, 40 μL of cells were added to yield a final concentration of 15,000 cells per well. The plates were then spun down for 2 minutes at 1000 rpm. After 2 hours, plated cells were treated with 100 nL×4 of small molecules and controls which were added using the pin tool. After 48 hours of incubation at 37 °C with 5% CO2, 20 μL of Cell Titer-Glo™ Luminescence Assay Kit (cytotoxicity assay) were added and luminescence was read. Controls were measured within each plate to determine the z′ factor (Equation 1) and to enable data normalization. Three independent experiments were performed in quadruplicate and data was analyzed using nonlinear regression with variable slope (GraphPrism, Equation 2). The luminescence intensity of control (untreated) cells was taken as 100% viability, and the relative cell viability compared to control was calculated. Data are presented as the means±SEM of a series of three experiments.

[4] = system: METH-impaired PPI in C57/B6 mice; experiment: PPI test, methamphetamine-impaired prepulse inhibition; format: in vivo, mouse; conditions: mice, compound 10 mg/kg i.p. 15 min before METH 2 mg/kg i.p.
Protocol: All animal experiments conducted at NTU were approved by the Institutional Animal Care and Use Committee of College of Medicine, National Taiwan University. C57/B6 (8-10 weeks) mice were used for the PPI test and Wistar rats (8-9 weeks) were used in the migraine model. Animals were housed in an animal room with a 12-h light/12-h dark cycle and free access to food and water.
The PPI test was conducted with a PPI apparatus (SR-LAB, San Diego Instruments, San Diego, Calif.) consisting of a startle chamber equipped with various programming acoustic stimulations. After acclimation, the mouse was gently placed in the startle chamber for a 4 min acclimation period with a background noise of 65 dB, which continued throughout the whole PPI test session. One PPI test session consisted of 4 types of startle trials, including the trial with the startle pulse (115 dB) alone (PULSEALONE; 115 dB, 20 ms), two trials with the startle pulse paired with 71 and 77 dB prepulses, respectively (PREPULSE+PULSE; 71 dB+115 dB and 77 dB+115 dB), and the trial without stimulus (NOSTIM; background 65 dB only). A test session started and ended, respectively, with four NOSTIM trials and four PULSEALONE trials. In between, each of the four types of trials was presented 14 times randomly, that is, 56 trials were given in a test session. The intertrial interval was given randomly from 5 to 20 s. In the PREPULSE+PULSE trial, a 71 or 77 dB prepulse was given 120 ms before the 115 dBpulse. The magnitude of PPI (PPI %) was determined, after summarizing the startle responses in PULSEALONE and PREPULSE+PULSE trials, according to the equation (PULSEALON−PREPULSE+PULSE)/PULSEALONE×100%. The tested compound or vehicle was given to the animal for 15 min, followed by methamphetamine (2 mg/kg). The PPI test was conducted 10 min after injection of methamphetamine. Data were expressed as the mean±S.E.M. Statistical comparisons among groups were analyzed by ANOVA with Tukey post hoc test, and differences between groups were analyzed by Student's t-test. Two-way ANOVA with Bonferroni's post hoc test was used to analyze differences in the time courses of locomotor activity among groups. Differences were considered significant if P<0.05.
Methamphetamine and apomorphine were dissolved in normal saline for i.p. And s.c. Injections, respectively. Tested compounds and haloperidol, when given by i.p. Injection, were dissolved in a vehicle containing 20% dmso, 20% Cremophor® el (polyoxyethylene castor, sigma-aldrich) and 60% normal saline. Furosemide was dissolved (20 nmole/μL) in dimethylsulfoxide for intra-cerebellar microinjection the i.p. or s.c. Injection volume was 10 mL/kg.

[5] = Half-life in liver microsomes (Example 4); format: in vitro ADME; conditions: rat and human liver microsomes, species of the value not stated
Excerpt: Metabolic pathways that may disrupt the activity of compounds with aryl methoxy groups were investigated.

With `[2H]C([2H])([2H])Oc1ccc(-n2nc3c4ccc(Br)cc4[nH]cc-3c2=O)cc1` [DK-I-58-1, 7-Bromo-2-(4-methoxy-d3-phenyl)-2,5-dihydro-3H-pyrazolo[4,3-c]quinolin-3-one] the solubility at 2 h [1] was 9.2 µg/mL (≈ 24.7 µM), the “% left after 1 hr. (HLM)” value [2] was 81.5 ± 0.11% and the “Half-life (min) (HLM)” value [2] was 204.6 ± 10 min. For the same compound, the “% left after 1 hr. (MLM)” value [3] was 73.8 ± 0.15%, the half-life at 10 μM [3] was 140 ± 7.18 min and the “toxicity at 400 μM” value (HEPG2 cell line) was “non-toxic”.
With `[2H]C([2H])([2H])Oc1cccc(-n2nc3c4cc(Cl)ccc4[nH]cc-3c2=O)c1` [DK-I-59-1, 8-Chloro-2-(3-methoxy-d3-phenyl)-2,5-dihydro-3H-pyrazolo[4,3-c]quinolin-3-one] the “% left after 1 hr. (HLM)” value [2] was 93 ± 0.09%, the “Half-life (min) (HLM)” value [2] was 649 ± 81 min and the “% left after 1 hr. (MLM)” value [3] was 76.6 ± 0.11%. For the same compound, the half-life at 10 μM [3] was 166 ± 7.5 min, the “toxicity at 400 μM” value (HEPG2 cell line) was “non-toxic” and the “rescue of METH-impaired PPI” value [4] was “effective”.
For `[2H]C([2H])([2H])Oc1ccc(-n2nc3c4ccc(OC([2H])([2H])[2H])cc4[nH]cc-3c2=O)cc1` [DK-I-60-3, 7-Methoxy-d3-2-(4-methoxy-d3-phenyl)-2,5-dihydro-3H-pyrazolo[4,3-c]quinolin-3-one], the solubility at 2 h [1] was 16 µg/mL (≈ 48.9 µM), the “% left after 1 hr. (HLM)” value [2] was 91.51 ± 0.18% and the “Half-life (min) (HLM)” value [2] was 780.73 ± 238 min. The “% left after 1 hr. (MLM)” value [3] was 93.08 ± 0.19%, the “Half-life (min) (MLM)” value [3] was 846.85 ± 276 min and the “toxicity at 400 μM” value (HEPG2 cell line) was “non-toxic”.
With `COc1ccc(-n2nc3c4ccc(Br)cc4[nH]cc-3c2=O)cn1` [DK-II-48-1, 7-Bromo-2-(6-methoxypyridin-3-yl)-2,5-dihydro-3H-pyrazolo[4,3-c]quinolin-3-one] the “% left after 1 hr. (HLM)” value [2] was 93.4 ± 0.11%, the “Half-life (min) (HLM)” value [2] was 727.7 ± 115 min and the “% left after 1 hr. (MLM)” value [3] was 93.12 ± 0.22%. For the same compound, the “Half-life (min) (MLM)” value [3] was 680.6 ± 114 min and the “toxicity at 400 μM” value (HEPG2 cell line) was “non-toxic”.
In the case of `[2H]C([2H])([2H])Oc1ccc2c3nn(-c4ccc(OC)cc4)c(=O)c-3c[nH]c2c1` [RV-I-029, 7-Methoxy-d3-2-(4-methoxyphenyl)-2,5-dihydro-3H-pyrazolo[4,3-c]quinolin-3-one], the “% left after 1 hr. (HLM)” value [2] is reported as 95.35 ± 1%, the half-life at 10 μM ([2]; human, liver microsomes, pH 7.4, read-out: Half-life (min) (HLM)) is reported as 2970 ± 742 min and the “% left after 1 hr. (MLM)” value [3] is reported as 93.17 ± 016%. The “Half-life (min) (MLM)” value [3] was 857.8 ± 235 min, the half-life [5] was greater than 3000 min and the “rescue of METH-impaired PPI” value ([4]; listed as 1-29) was “effective”.
